Data as given in US10047051B2, “Substituted pyridines and method of use” (AbbVie S.á{acute over (.)}r.l., priority 2015, dated 2018).

What was measured:
Assay type in all cases: cell-based
CFTR ΔF508 = molecular target: T1, CFTR ΔF508 (Homo sapiens, UniProt P13569, DEL508-508); test: TECC assay, primary bronchial epithelial cells, CFTR ΔF508; conditions: primary bronchial epithelial cells of CF patients homozygous for CFTR ΔF508, treated with 3 μM VX809, increase in Isc after forskolin
T1 construct: host or cells: primary human bronchial epithelial cells from CF patients homozygous for ΔF508, pre-treated with VX809
Protocol: The TECC (Tranepithelial Clamp Circuit, EP-design) assay measures the functionality of the cystic fibrosis Transmembrane Conductance regulator (CFTR) by measuring the short circuit current (Isc) generated over the basolateral and apical membrane of lung epithelial cells. In TECC the transepithelial potential PD and transepithelial resistance (Rt) are measured in an open circuit and transformed to Isc using Ohm's law. 24 Wells can be measured simultaneously allowing a higher throughput compared to Ussing chambers.
For this purpose, bronchial epithelial cells isolated from CF patients homozygous for the CFTR ΔF508 mutation (hAEC-CF, Epithelix) are plated on type IV collagen-coated Transwell® supports (Costar). Human airway epithelia are generated by provision of an air-liquid interface for 21 days to form well-differentiated polarized cultures that resemble in vivo pseudo-stratified ciliated epithelium (Fulcher, M. L., Gabriel, S., Burns, K. A., Yankaskas, J. R., Randell, S. H., 2005. Well-differentiated human airway epithelial cell cultures. Methods Mol. Med. 107, 183-206). In the case of the homozygous ΔF508 CFTR samples, the differentiated cells are treated with 3 μM VX809 (2626 South Loop West, Suite 225, Houston, Tex. 77054 USA, Cat n# S1565) to allow sufficient expression of properly folded CFTR protein on the membrane (48 hours basolateral treatment and 24 hours apical treatment), prior to electrophysiological recordings. For heterozygous G551D/ΔF508, differentiated cells are used as such for the recordings.
Information on the compounds can be retrieved on the homozygous ΔF508 CFTR samples looking at increased CFTR activity when compounds are added in an acute mode or in a chronic mode. On G551D/ΔF508 CFTR heterozygous samples compounds are added in an acute mode to the differentiated cells.
For the acute mode, for electrophysiological recording, the human airway epithelia are mounted in the TECC heating plate for electrophysiological measurement and kept at 37° C. The epithelia are bathed in a NaCl-Ringer solution (120 mM NaCl, 25 mM NaHCO3, 1.2 mM CaCl2, 1.2 mM MgCl2, 0.8 mM KH2PO4, 0.8 mM K2HPO4, pH 7.4, 5 mM glucose) on both the basolateral and apical sides. Apical amiloride is used to inhibit the endogenous ENaC currents while forkolin is applied on both apical and basolateral side to stimulate CFTR. After forskolin triggering, compounds are added on both sides to test their potential for increasing CFTR gating. Measurements are done during a 20 minute timeframe with recordings every 2 minutes. The increase in Isc is used as a measure for the increased CFTR activity, EC50 values can be generated by measuring impact of different concentrations of compound on Isc on primary cells, for this purpose each transwell is treated with a different compound concentration. Inh-172, an inhibitor specific for CFTR, is used to test the specificity of the tested compounds.
For the chronic mode, the differentiated cells are treated with 3 μM VX809 (2626 South Loop West, Suite 225, Houston, Tex. 77054 USA, Cat n# S1565) and potentiator compounds at different concentrations (48 hours basolateral treatment and 24 hours apical treatment), prior to electrophysiological recordings. For electrophysiological recording, the human airway epithelia are mounted in the TECC heating plate for electrophysiological measurement and kept at 37° C. The epithelia are bathed in a NaCl-Ringer solution (120 mM NaCl, 25 mM NaHCO3, 1.2 mM CaCl2, 1.2 mM MgCl2, 0.8 mM KH2PO4, 0.8 mM K2HPO4, pH 7.4, 5 mM glucose) on both the basolateral and apical sides. Apical amiloride is used to inhibit the endogenous ENaC currents while forkolin is applied on both apical and basolateral side to stimulate CFTR. Measurements are done during a 20 minute timeframe with recordings every 2 minutes. […]

CFTR-S549N = molecular target: T2, CFTR-S549N (Homo sapiens, UniProt P13569, S549N); test: YFP-halide influx assay for the CFTR-S549N; set-up: % Activation: concentration or dose not given beside the values
T2 construct: expressed in transfected cells
In short: (§1)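 HEK293 cells reverse-transfected with a CFTR mutant and YFP H148Q/I152L/F47L halide sensor, expressed 24 h at 37° C. Fluorescence quenching followed for 7 s after I⁻ injection; activity expressed as 1−F/F0, with EC50 fitted from 1−F/F0 versus compound concentration.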

CFTR-R117H = molecular target: T3, CFTR-R117H (Homo sapiens, UniProt P13569, R117H); test: YFP-halide influx assay for the CFTR-R117H
T3 construct: expressed in transfected cells
In short: as §1

T2 sequence (P13569 whole entry S549N): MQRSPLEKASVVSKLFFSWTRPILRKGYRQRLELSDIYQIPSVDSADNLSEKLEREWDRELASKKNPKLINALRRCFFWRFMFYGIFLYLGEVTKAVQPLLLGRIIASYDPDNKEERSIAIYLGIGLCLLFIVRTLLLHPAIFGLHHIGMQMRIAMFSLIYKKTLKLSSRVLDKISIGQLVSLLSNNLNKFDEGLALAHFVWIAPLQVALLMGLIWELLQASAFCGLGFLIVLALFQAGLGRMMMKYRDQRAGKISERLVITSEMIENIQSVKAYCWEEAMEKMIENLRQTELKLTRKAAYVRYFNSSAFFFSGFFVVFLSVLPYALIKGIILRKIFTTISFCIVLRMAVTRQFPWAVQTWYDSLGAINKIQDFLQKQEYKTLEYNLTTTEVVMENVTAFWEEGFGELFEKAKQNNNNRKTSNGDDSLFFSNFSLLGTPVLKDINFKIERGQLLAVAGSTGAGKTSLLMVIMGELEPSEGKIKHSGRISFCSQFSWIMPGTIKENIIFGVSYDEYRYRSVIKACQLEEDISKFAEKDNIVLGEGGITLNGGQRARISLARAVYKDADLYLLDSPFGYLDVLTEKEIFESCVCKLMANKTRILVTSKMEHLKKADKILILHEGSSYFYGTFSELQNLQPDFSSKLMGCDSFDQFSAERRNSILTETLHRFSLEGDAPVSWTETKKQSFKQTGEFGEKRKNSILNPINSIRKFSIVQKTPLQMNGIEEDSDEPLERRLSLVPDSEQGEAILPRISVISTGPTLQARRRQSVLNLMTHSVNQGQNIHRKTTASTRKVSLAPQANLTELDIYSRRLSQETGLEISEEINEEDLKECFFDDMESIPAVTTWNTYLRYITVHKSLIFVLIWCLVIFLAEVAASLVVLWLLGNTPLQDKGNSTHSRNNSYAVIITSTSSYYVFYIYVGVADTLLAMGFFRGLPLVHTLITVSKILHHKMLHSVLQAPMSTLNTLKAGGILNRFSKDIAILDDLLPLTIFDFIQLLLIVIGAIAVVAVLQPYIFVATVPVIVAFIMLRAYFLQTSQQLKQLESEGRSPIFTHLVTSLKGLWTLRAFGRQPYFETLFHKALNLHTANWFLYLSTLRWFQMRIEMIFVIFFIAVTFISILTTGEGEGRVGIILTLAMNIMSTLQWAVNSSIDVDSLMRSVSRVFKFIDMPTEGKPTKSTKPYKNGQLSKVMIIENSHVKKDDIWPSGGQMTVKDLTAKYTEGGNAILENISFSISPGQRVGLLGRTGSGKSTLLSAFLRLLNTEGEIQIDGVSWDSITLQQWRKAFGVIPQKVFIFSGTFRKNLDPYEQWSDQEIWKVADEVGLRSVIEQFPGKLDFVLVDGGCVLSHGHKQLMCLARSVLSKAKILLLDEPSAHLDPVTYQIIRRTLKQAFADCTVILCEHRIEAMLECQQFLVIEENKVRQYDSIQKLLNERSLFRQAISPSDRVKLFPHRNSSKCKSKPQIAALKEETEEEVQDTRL
T1 sequence (P13569 with tags, fused parts or gaps DEL508-508): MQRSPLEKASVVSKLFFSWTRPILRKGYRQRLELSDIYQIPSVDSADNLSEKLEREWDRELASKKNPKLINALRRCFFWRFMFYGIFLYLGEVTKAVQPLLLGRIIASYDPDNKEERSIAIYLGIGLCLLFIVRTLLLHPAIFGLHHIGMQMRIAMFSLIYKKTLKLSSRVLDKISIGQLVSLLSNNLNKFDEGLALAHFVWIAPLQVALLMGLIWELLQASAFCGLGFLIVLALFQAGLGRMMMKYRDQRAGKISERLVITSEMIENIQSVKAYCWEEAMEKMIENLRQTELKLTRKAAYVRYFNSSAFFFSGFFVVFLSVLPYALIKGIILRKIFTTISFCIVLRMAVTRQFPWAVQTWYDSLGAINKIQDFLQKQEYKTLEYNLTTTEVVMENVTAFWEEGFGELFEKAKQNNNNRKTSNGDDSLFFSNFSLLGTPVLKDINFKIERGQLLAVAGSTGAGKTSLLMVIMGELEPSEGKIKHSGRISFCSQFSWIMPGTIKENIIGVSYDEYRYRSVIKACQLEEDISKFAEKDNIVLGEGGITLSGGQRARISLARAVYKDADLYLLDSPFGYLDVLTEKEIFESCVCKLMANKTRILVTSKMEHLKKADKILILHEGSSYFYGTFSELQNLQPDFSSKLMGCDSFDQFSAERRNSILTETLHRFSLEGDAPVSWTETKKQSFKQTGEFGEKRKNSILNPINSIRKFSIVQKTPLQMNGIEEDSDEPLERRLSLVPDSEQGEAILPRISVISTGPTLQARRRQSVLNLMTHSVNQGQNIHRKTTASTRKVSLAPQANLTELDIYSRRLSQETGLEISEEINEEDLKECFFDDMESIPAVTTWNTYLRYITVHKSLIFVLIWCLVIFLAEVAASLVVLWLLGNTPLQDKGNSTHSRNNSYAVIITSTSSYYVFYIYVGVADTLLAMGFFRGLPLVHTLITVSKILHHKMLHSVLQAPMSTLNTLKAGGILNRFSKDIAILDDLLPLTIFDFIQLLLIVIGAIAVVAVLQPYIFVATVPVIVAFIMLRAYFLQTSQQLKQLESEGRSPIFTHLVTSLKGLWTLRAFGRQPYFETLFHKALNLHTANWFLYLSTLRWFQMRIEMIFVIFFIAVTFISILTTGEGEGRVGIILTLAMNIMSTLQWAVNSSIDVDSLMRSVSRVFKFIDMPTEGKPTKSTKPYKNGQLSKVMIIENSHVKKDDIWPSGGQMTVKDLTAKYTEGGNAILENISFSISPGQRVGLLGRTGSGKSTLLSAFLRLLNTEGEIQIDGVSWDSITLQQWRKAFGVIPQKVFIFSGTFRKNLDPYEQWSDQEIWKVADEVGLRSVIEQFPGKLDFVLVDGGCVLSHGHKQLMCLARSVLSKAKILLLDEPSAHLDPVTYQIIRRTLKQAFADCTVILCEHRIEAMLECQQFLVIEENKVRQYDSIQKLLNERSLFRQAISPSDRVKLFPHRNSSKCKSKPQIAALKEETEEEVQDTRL
T3 sequence (P13569 whole entry R117H): as the sequence (P13569 whole entry S549N) above, with R117H, N549S counted along it

Row | Compound | EC50 (CFTR ΔF508) | % Activation (CFTR-S549N) | EC50 (CFTR-S549N) | % Activation (CFTR-R117H) | EC50 (CFTR-R117H)
1 | CC(C)(O)CNC(=O)c1ncc(S(=O)(=O)c2ccc(OC(F)(F)F)cc2)cc1N [Compound 1, 3-amino-N-(2-hydroxy-2-methylpropyl)-5-{[4-(trifluoromethoxy)phenyl]sulfonyl}pyridine-2-carboxamide] | 95.9 nM | 72.7% | 580 nM | 98.5% | 598 nM
2 | CC(O)(CNC(=O)c1ncc(S(=O)(=O)c2ccc(OC(F)(F)F)cc2)cc1N)C(F)(F)F (centres unmarked) [Compound 2, 3-amino-N-(3,3,3-trifluoro-2-hydroxy-2-methylpropyl)-5-{[4-(trifluoromethoxy)phenyl]sulfonyl}pyridine-2-carboxamide] | 47.1 nM | 70.3% | 331 nM | 76.0% | 231 nM
3 | Nc1cc(S(=O)(=O)c2ccc(OC(F)(F)F)cc2)cnc1C(=O)NCC(O)C(F)(F)F (centres unmarked) [Compound 6, 3-amino-N-(3,3,3-trifluoro-2-hydroxypropyl)-5-{[4-(trifluoromethoxy)phenyl]sulfonyl}pyridine-2-carboxamide] | 63.2 nM | 87.1% | 390 nM | 95.7% | 63.9 nM
4 | Nc1cc(S(=O)(=O)c2ccc(OC(F)(F)F)cc2)cnc1C(=O)NCCO [Compound 14, 3-amino-N-(2-hydroxyethyl)-5-{[4-(trifluoromethoxy)phenyl]sulfonyl}pyridine-2-carboxamide] |  | 68.9% | 1100 nM | 89.7% | 943 nM
5 | C[C@H](O)CNC(=O)c1ncc(S(=O)(=O)c2ccc(OC(F)(F)F)cc2)cc1N [Compound 21, 3-amino-N-[(2S)-2-hydroxypropyl]-5-{[4-(trifluoromethoxy)phenyl]sulfonyl}pyridine-2-carboxamide] | 35.5 nM | 86.4% | 748 nM | 93.3% | 289 nM
6 | Nc1cc(S(=O)(=O)c2ccc(F)cc2)cnc1C(=O)NC[C@H](O)C(F)(F)F [Compound 25, 3-amino-5-[(4-fluorophenyl)sulfonyl]-N-[(2S)-3,3,3-trifluoro-2-hydroxypropyl]pyridine-2-carboxamide] | 38.6 nM | 82.5% | 292 nM | 91.3% | 318 nM
7 | Nc1cc(S(=O)(=O)c2ccc(OC(F)(F)F)cc2)cnc1C(=O)NC[C@H](O)C(F)(F)F [Compound 26, 3-amino-N-[(2S)-3,3,3-trifluoro-2-hydroxypropyl]-5-{[4-(trifluoromethoxy)phenyl]sulfonyl}pyridine-2-carboxamide] | 24 nM |  |  |  | 
8 | Nc1cc(S(=O)(=O)c2ccc(OC(F)(F)F)cc2)cnc1C(=O)NCC(O)COCC1CC1 (centres unmarked) [Compound 31, 3-amino-N-[3-(cyclopropylmethoxy)-2-hydroxypropyl]-5-{[4-(trifluoromethoxy)phenyl]sulfonyl}pyridine-2-carboxamide] | 48.4 nM | 91.4% | 567 nM | 100.0% | 866 nM
9 | Nc1cc(S(=O)(=O)c2ccc(OC(F)(F)F)cc2)cnc1C(=O)N1CC(O)C1 [Compound 32, (3-amino-5-{[4-(trifluoromethoxy)phenyl]sulfonyl}pyridin-2-yl)(3-hydroxyazetidin-1-yl)methanone] | 72.9 nM | 91.7% | 711 nM | 91.3% | 460 nM
10 | Nc1cc(S(=O)(=O)c2ccc(F)cc2)cnc1C(=O)NC[C@@H](O)C(F)(F)F [Compound 36, 3-amino-5-[(4-fluorophenyl)sulfonyl]-N-[(2R)-3,3,3-trifluoro-2-hydroxypropyl]pyridine-2-carboxamide] | 63 nM | 92.9% | 294 nM | 100.8% | 148 nM
11 | Nc1cc(S(=O)(=O)c2ccc(OC(F)(F)F)cc2)cnc1C(=O)NC[C@@H](O)C(F)(F)F [Compound 37, 3-amino-N-[(2R)-3,3,3-trifluoro-2-hydroxypropyl]-5-{[4-(trifluoromethoxy)phenyl]sulfonyl}pyridine-2-carboxamide] | 13.2 nM |  |  |  | 
12 | Nc1cc(S(=O)(=O)c2ccc(OC(F)(F)F)cc2)cnc1C(=O)N1CC(F)(F)C1 [Compound 40, (3-amino-5-{[4-(trifluoromethoxy)phenyl]sulfonyl}pyridin-2-yl)(3,3-difluoroazetidin-1-yl)methanone] | 62.2 nM | 84.51% | 1200 nM | 86.71% | 291 nM
13 | COC[C@H](O)CNC(=O)c1ncc(S(=O)(=O)c2ccc(C(F)(F)F)cc2)cc1N [Compound 70, 3-amino-N-[(2R)-2-hydroxy-3-methoxypropyl]-5-{[4-(trifluoromethyl)phenyl]sulfonyl}pyridine-2-carboxamide] | 38.8 nM | 104.7% | 526 nM | 98.8% | 540 nM
14 | Nc1cc(S(=O)(=O)c2ccccc2OC(F)(F)F)cnc1C(=O)NC[C@@H](O)C(F)(F)F [Compound 81, 3-amino-N-[(2R)-3,3,3-trifluoro-2-hydroxypropyl]-5-{[2-(trifluoromethoxy)phenyl]sulfonyl}pyridine-2-carboxamide] | 9.49 nM | 107% | 11.1 nM | 113.2% | 21.8 nM
15 | C[C@H](O)CNC(=O)c1ncc(S(=O)(=O)c2ccc(C(F)(F)F)cc2)cc1N [Compound 100, 3-amino-N-[(2S)-2-hydroxypropyl]-5-{[4-(trifluoromethyl)phenyl]sulfonyl}pyridine-2-carboxamide] |  | 103.0% | 648 nM | 97.3% | 505 nM
